# In ChEMBL document CHEMBL5338799, “Synthesis and evaluation of phenylimidazole FabK inhibitors as new Anti-C. Difficile agents” (Bioorg Med Chem, 2023):
# pIC50: −log10 of the molar value.
# Key:
# Clostridioides difficile = assay: Antibacterial activity against Clostridioides difficile R20291 assessed as inhibition of bacterial growth incubated for 24 hrs by broth microdilution method; format: functional
# HCT-116 = assay: cells; format: functional, cell-based; details: Homo sapiens, HCT-116, 48 h
# Description: Cytotoxicity against human HCT-116 cells assessed as reduction in cell viability incubated for 48 hrs by resazurin dye based assay
# [1] = Inhibition of Clostridioides difficile FabK expressed in Escherichia coli BL21 (DE3) using crotonyl-CoA as substrate incubated for 10 mins in presence of NADH by microplate reader assay
# [2] = Solubility of compound by turbidimetric assay; format: physicochemical
# [3] = Inhibition of Streptococcus pneumoniae FabK expressed in Escherichia coli BL21 (DE3) using crotonyl-CoA as substrate incubated for 10 mins in presence of NADH by microplate reader assay
SMILES,MIC (Clostridioides difficile),IC50 (HCT-116),pIC50 [1],solubility kinetic [2],pIC50 [3]
O=C(NCc1nc(-c2ccc(Br)cc2)c[nH]1)Nc1ncc(Sc2ncccc2C(F)(F)F)s1,1.56 µg/mL,> 100 µg/mL,6.62,52 µM,–
O=C(NCc1ncc(-c2ccc(Br)cc2)[nH]1)Nc1ncc(Sc2ccccn2)s1,1.56 µg/mL,> 100 µg/mL,5.91,80.1 µM,–
O=C(NCc1nc(-c2ccc(Br)cc2)c[nH]1)Nc1nc2ccccc2s1,> 50 µg/mL,–,5.73,64.8 µM,–
CCOc1ccc2nc(NC(=O)NCc3nc(-c4ccc(Br)cc4)c[nH]3)sc2c1,12.5 µg/mL,–,6.77,79 µM,–
O=C(NCc1nc2ccccc2c(=O)[nH]1)Nc1ncc(Sc2ccccn2)s1,> 50 µg/mL,–,< 5.00,–,–
O=C(NCc1nc2ccccc2[nH]1)Nc1ncc(Sc2ccccn2)s1,> 50 µg/mL,–,< 5.00,–,–
O=C(NCc1nc(-c2ccc(Br)cc2)c[nH]1)Nc1ncc(Sc2ccc3ccccc3n2)s1,> 50 µg/mL,–,6.12,74.7 µM,–
O=C(NCc1nc(-c2ccc(Br)cc2)c[nH]1)Nc1nc2cc(C(F)(F)F)ccc2s1,3.12 µg/mL,–,< 5.00,–,–
O=C(NCc1nc(-c2ccc(Br)cc2)c[nH]1)Nc1nc2ccc(Br)cc2s1,50 µg/mL,–,6.47,31.3 µM,–
O=C(NCc1nc(-c2ccc(Br)cc2)c[nH]1)Nc1nc2ccc(OC(F)(F)F)cc2s1,12.5 µg/mL,–,7.05,–,–
O=C(NCc1nc(-c2ccc(Br)cc2)c[nH]1)Nc1ncc(Sc2ccccc2)s1,1.56 µg/mL,–,6.05,–,–
CS(=O)(=O)c1ccc2nc(NC(=O)NCc3nc(-c4ccc(Br)cc4)c[nH]3)sc2c1,> 100 µg/mL,–,6.35,44.5 µM,–
O=C(NCc1nc(-c2ccc(Br)cc2)c[nH]1)Nc1nc2c(F)cc(F)cc2s1,12.5 µg/mL,–,5.34,125 µM,–
O=C(NCc1nc(-c2ccc(Br)cc2)c[nH]1)Nc1ncc(Sc2ccc(Cl)cn2)s1,3.12 µg/mL,–,6.07,59 µM,–
O=C(NCc1ncc(-c2ccccc2)[nH]1)Nc1ncc(Sc2ccccn2)s1,> 50 µg/mL,–,< 5.00,–,–
O=C(NCc1nc(-c2ccc(Br)cc2)c[nH]1)Nc1ncc(Sc2ccc(C(F)(F)F)cn2)s1,3.12 µg/mL,> 100 µg/mL,6.11,18.3 µM,–
O=C(NCc1nc(-c2ccc(Br)cc2)c[nH]1)Nc1nc2ccc(Cl)cc2s1,6.25 µg/mL,> 100 µg/mL,6.96,76.9 µM,–
O=C(NCc1nc(-c2ccc(Br)cc2)c[nH]1)Nc1nc2cccc(C(F)(F)F)c2s1,–,–,5.55,–,–
O=C(NCc1nc(-c2ccc(Br)cc2)c[nH]1)Nc1ncc(Sc2ncccn2)s1,1.56 µg/mL,> 100 µg/mL,5.99,83.9 µM,–
O=C(NCc1nc(-c2ccc(Br)cc2)c[nH]1)Nc1nc2c(C(F)(F)F)cccc2s1,1.56 µg/mL,> 100 µg/mL,< 5.00,–,–
O=C(NCc1nc(-c2ccc(Br)cc2)c[nH]1)Nc1nc2ccc(F)cc2s1,–,–,6.64,61.3 µM,–
O=C(NCc1nc(-c2ccc(Br)cc2)c[nH]1)Nc1ncc(Sc2nc3ccccc3s2)s1,> 50 µg/mL,–,6.38,50 µM,–
O=C(NCc1nc(-c2ccc(Br)cc2)c[nH]1)Nc1ncc(Sc2ccc(Br)cc2)s1,25 µg/mL,–,6.28,63.6 µM,–
COC(=O)c1ccc2nc(NC(=O)CSc3nc4ccccc4[nH]3)sc2c1,–,–,5.38,–,5.74
O=C(NCc1nc(-c2ccccc2)c[nH]1)Nc1ncc(Sc2ccccc2)s1,–,–,–,–,7.43
